What was measured:
CDK2/Cyclin E2 = CDK2/Cyclin E2 (Homo sapiens, UniProt P24941); experiment: CDK2/CyclinE2 enzymatic activity assay (TR-FRET); type: biochemical; settings: ATP 1 mM final, read-out: CDK2_E1 IC50
Method in brief: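 Insect-cell-expressed CDK2/Cyclin E2 (1 nM), ULight-4E-BP1 (50 nM) and ATP (1 mM) in HEPES pH 7.4 buffer were preincubated 20 min at RT with compound (9-dose, 3-fold), started with 10 mM MgCl2 and run 45 min at 37 °C. EDTA/Eu-anti-P-4E-BP1 stop, 60 min TR-FRET detection; IC50 from 4-parameter Hill fit.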

OVCAR3 p-RB = experiment: pRB ICW assay in OVCAR3 cells; type: cell-based; settings: Homo sapiens, OVCAR-3, incubated with compound for 2 hours
Method in brief: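 OVCAR3 cells were treated 2 h at 37 °C with a 9-point half-log compound series, in duplicate, with 10 μM reference compound as maximum inhibition. Cells were then fixed, permeabilized and stained with anti-phospho-RB plus DRAQ5. In-cell western intensities were read at 700/800 nm on Odyssey CLx.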

CDK4/Cyclin D1 = target: T1, CDK4/Cyclin D1 (Homo sapiens, UniProt P11802); experiment: CDK4/CyclinD1 enzymatic activity assay (TR-FRET); type: biochemical; settings: ATP 2 mM final, read-out: CDK4_D1 IC50
T1 construct: purchased ProQinase; host or cells: insect cell
T1 sequence (P11802 whole entry): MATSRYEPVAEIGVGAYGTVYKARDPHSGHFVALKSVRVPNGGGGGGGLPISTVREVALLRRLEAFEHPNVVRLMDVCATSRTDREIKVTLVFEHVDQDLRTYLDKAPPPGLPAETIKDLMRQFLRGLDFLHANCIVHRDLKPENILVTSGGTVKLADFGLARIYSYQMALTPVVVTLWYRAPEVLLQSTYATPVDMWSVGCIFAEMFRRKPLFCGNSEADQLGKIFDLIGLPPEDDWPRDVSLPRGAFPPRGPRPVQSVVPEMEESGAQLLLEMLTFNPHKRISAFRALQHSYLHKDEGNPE
T1 sequence (P24385 whole entry partner): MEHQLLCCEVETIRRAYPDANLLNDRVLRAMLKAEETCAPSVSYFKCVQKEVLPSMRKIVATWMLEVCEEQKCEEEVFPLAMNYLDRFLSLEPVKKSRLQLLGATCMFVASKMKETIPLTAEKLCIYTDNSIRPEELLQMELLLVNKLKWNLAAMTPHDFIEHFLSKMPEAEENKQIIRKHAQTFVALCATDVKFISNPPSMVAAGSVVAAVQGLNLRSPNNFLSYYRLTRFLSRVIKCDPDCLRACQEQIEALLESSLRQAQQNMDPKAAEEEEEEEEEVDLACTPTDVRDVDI
Method in brief: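 Insect-cell-expressed CDK4/Cyclin D1 (1 nM) phosphorylated ULight-4E-BP1 peptide (100 nM) at 2 mM ATP in HEPES pH 7.4 buffer after 20 min compound preincubation. Reaction started with 10 mM MgCl2, ran 45 min at 37 °C, then EDTA quench and Eu-anti-phospho-4E-BP1 TR-FRET detection. IC50 from 9-point 3-fold dilutions, 4-parameter fit.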

| Compound | IC50 (CDK2/Cyclin E2) [nM] | IC50 (OVCAR3 p-RB) [nM] | IC50 (CDK4/Cyclin D1) [nM] |
| --- | --- | --- | --- |
| CS(=O)(=O)N1CCC(Nc2ncc(C(F)(F)F)c(-c3cnc(OC4CCCC4)s3)n2)CC1 [Example 27, 4-(2-(cyclopentyloxy)thiazol-5-yl)-N-(1-(methylsulfonyl)piperidin-4-yl)-5-(trifluoromethyl)pyrimidin-2-amine] | ≤ 100 | > 1000 | ≤ 100 |
| Cn1cc(S(=O)(=O)N2CCC(Nc3ncc(C(F)(F)F)c(-c4cnc(C(O)C(F)F)s4)n3)CC2)cn1 (stereo not drawn) [Example 92, 2,2-difluoro-1-(5-(2-((1-((1-methyl-1H-pyrazol-4-yl)sulfonyl)piperidin-4-yl)amino)-5-(trifluoromethyl)pyrimidin-4-yl)thiazol-2-yl)ethan-1-ol] | ≤ 100 | ≤ 100 | ≤ 100 |
| Cc1ncc(-c2nc(NC3CCN(S(=O)(=O)c4cnn(C)c4)CC3)ncc2C(F)(F)F)s1 [Example 60, N-[1-(1-Methylpyrazol-4-yl)sulfonylpiperidin-4-yl]-4-(2-methyl-1,3-thiazol-5-yl)-5-(trifluoromethyl)pyrimidin-2-amine] | ≤ 100 | 100 to 1000 | ≤ 100 |
| COC(=O)Nc1ncc(-c2nc(NC3CCN(S(C)(=O)=O)CC3)ncc2C(F)(F)F)s1 [Example 54, Methyl N-[5-[2-[(1-methylsulfonylpiperidin-4-yl)amino]-5-(trifluoromethyl)pyrimidin-4-yl]-1,3-thiazol-2-yl]carbamate] | ≤ 100 | > 1000 | 100 to 1000 |
| CCOc1ncc(-c2nc(NC3CCN(S(C)(=O)=O)CC3)ncc2C(F)(F)F)s1 [Example 52, 4-(2-Ethoxy-1,3-thiazol-5-yl)-N-(1-methylsulfonylpiperidin-4-yl)-5-(trifluoromethyl)pyrimidin-2-amine] | ≤ 100 | 100 to 1000 | ≤ 100 |
| CC(O)c1ncc(-c2nc(NC3CCN(S(C)(=O)=O)CC3)ncc2C(F)(F)F)s1 (stereo not drawn) [Example 81, 1-(5-(2-((1-(methylsulfonyl)piperidin-4-yl)amino)-5-(trifluoromethyl)pyrimidin-4-yl)thiazol-2-yl)ethan-1-ol] | ≤ 100 | 100 to 1000 | ≤ 100 |
| CN(C)Cc1ncc(-c2nc(NC3CCN(S(C)(=O)=O)CC3)ncc2C(F)(F)F)s1 [Example 65, 4-[2-[(Dimethylamino)methyl]-1,3-thiazol-5-yl]-N-(1-methylsulfonylpiperidin-4-yl)-5-(trifluoromethyl)pyrimidin-2-amine] | ≤ 100 | > 1000 | 100 to 1000 |
| CS(=O)(=O)N1CCC(Nc2ncc(C(F)(F)F)c(-c3cnc(C4=CCCC4)s3)n2)CC1 [Example 4, 4-[2-(Cyclopenten-1-yl)-1,3-thiazol-5-yl]-N-(1-methylsulfonylpiperidin-4-yl)-5-(trifluoromethyl)pyrimidin-2-amine] | ≤ 100 | > 1000 | ≤ 100 |
| CN(c1ncc(-c2nc(NC3CCN(S(C)(=O)=O)CC3)ncc2C(F)(F)F)s1)[C@@H]1CCC[C@H]1O [Example 34, (1R,2R)-2-(methyl(5-(2-((1-(methylsulfonyl)piperidin-4-yl)amino)-5-(trifluoromethyl)pyrimidin-4-yl)thiazol-2-yl)amino)cyclopentan-1-ol] | ≤ 100 | 100 to 1000 | ≤ 100 |
| CS(=O)(=O)N1CCC(Nc2ncc(C(F)(F)F)c(-c3cnc(N4CCCC4)s3)n2)CC1 [Example 1, N-(1-Methylsulfonylpiperidin-4-yl)-4-(2-pyrrolidin-1-yl-1,3-thiazol-5-yl)-5-(trifluoromethyl)pyrimidin-2-amine] | ≤ 100 | 100 to 1000 | ≤ 100 |
| CC(O)c1ncc(-c2nc(N[C@H]3CCN(S(=O)(=O)c4cnn(C)c4)C[C@H]3F)ncc2C(F)(F)F)s1 (stereo partly drawn) [Example 98, 1-(5-(2-(((3R,4S)-3-fluoro-1-((1-methyl-1H-pyrazol-4-yl)sulfonyl)piperidin-4-yl)amino)-5-(trifluoromethyl)pyrimidin-4-yl)thiazol-2-yl)ethan-1-ol] | ≤ 100 | ≤ 100 | ≤ 100 |
| Cn1cnc(S(=O)(=O)N2CCC(Nc3ncc(C(F)(F)F)c(-c4cnc(CC(C)(C)O)s4)n3)CC2)c1 [Example 70, 2-methyl-1-(5-(2-((1-((1-methyl-1H-imidazol-4-yl)sulfonyl)piperidin-4-yl)amino)-5-(trifluoromethyl)pyrimidin-4-yl)thiazol-2-yl)propan-2-ol] | ≤ 100 | ≤ 100 | ≤ 100 |
| CS(=O)(=O)N1CCC(Nc2ncc(C(F)(F)F)c(-c3cnc(NC(=O)C(F)(F)F)s3)n2)CC1 [Example 57, 2,2,2-Trifluoro-N-[5-[2-[(1-methylsulfonylpiperidin-4-yl)amino]-5-(trifluoromethyl)pyrimidin-4-yl]-1,3-thiazol-2-yl]acetamide] | ≤ 100 | > 1000 | ≤ 100 |
| CN(C)c1ncc(-c2nc(NC3CCN(S(C)(=O)=O)CC3)ncc2C(F)F)s1 [Example 62, 5-[5-(Difluoromethyl)-2-[(1-methylsulfonylpiperidin-4-yl)amino]pyrimidin-4-yl]-N,N-dimethyl-1,3-thiazol-2-amine] | 100 to 1000 | > 1000 | 100 to 1000 |
| CN1CCN(CCCS(=O)(=O)N2CCC(Nc3ncc(C(F)(F)F)c(-c4cnc(CC(C)(C)O)s4)n3)CC2)CC1 [Example 80, 2-methyl-1-(5-(2-((1-((3-(4-methylpiperazin-1-yl)propyl)sulfonyl)piperidin-4-yl)amino)-5-(trifluoromethyl)pyrimidin-4-yl)thiazol-2-yl)propan-2-ol] | ≤ 100 | 100 to 1000 | ≤ 100 |
| CC(C)N(C)c1ncc(-c2nc(NC3CCN(S(C)(=O)=O)CC3)ncc2C(F)(F)F)s1 [Example 22, N-isopropyl-N-methyl-5-(2-((1-(methylsulfonyl)piperidin-4-yl)amino)-5-(trifluoromethyl)pyrimidin-4-yl)thiazol-2-amine] | ≤ 100 | 100 to 1000 | ≤ 100 |
| CN(CCO)c1ncc(-c2nc(NC3CCN(S(C)(=O)=O)CC3)ncc2C(F)(F)F)s1 [Example 35, 2-(methyl(5-(2-((1-(methylsulfonyl)piperidin-4-yl)amino)-5-(trifluoromethyl)pyrimidin-4-yl)thiazol-2-yl)amino)ethan-1-ol] | ≤ 100 | 100 to 1000 | ≤ 100 |

— US20240018136A1, “CDK Inhibitors And Their Use As Pharmaceuticals” (Prelude Therapeutics, Incorporated, priority 2022, published 2024)
